Assay results: patent US20140121107A1, “HERBICIDAL COMPOSITIONS FOR TOLERANT OR RESISTANT RICE CROPS” (Bayer Intellectual Property GmbH, priority 1998, published 2014)
Counter-ions that a name gives are not always drawn.

How the values were obtained:
Assay type in all cases: in vivo
Cyperus difformis [1] = assay: Herbicidal effect in rice weeds (field trial, Table 5); conditions: application in the 3-leaf stage, scoring 36 days after application
Procedure: (§1) Transgenic rice plants with a resistance to one or more herbicides (A) together with typical weed plants were grown in the open on 2×5 m plots under natural field conditions; alternatively, weed infestation occurred naturally when the rice plants were grown. Fields were set up for field rice or alternatively also for paddy rice.
(§2) […] The damage to, and the development of, all aerial parts of the plants was recorded. Scoring was done on the basis of a percentage sale (100% action=all plants destroyed; 50% action=50% of the plants and green parts of the plants destroyed; 0% action=no recognizable effect=like control plot. The mean of the score values of in each case 4 plots was calculated.

Cyperus difformis [2] = assay: Herbicidal effect in rice weeds (field trial, Table 10); conditions: 15 g A.S./ha; application in the 7-leaf stage; scoring 36 days after application
Procedure: as §1
The damage to, and the development of, all aerial parts of the plants was recorded.

Ipomoea sp. = assay: Herbicidal effect in rice weeds (Table 3); conditions: application in the 4-leaf stage, scoring 2 weeks after application
Procedure: as §1
(§3) 2, 4, 6 and 8 weeks after the application, the herbicidal activity of the active substances or active substance mixtures was scored visually with reference to the treated plots in comparison to untreated control plots. The damage to, and the development of, all aerial parts of the plants was recorded. Scoring was done on the basis of a percentage sale (100% action=all plants destroyed; 50% action=50% of the plants and green parts of the plants destroyed; 0% action=no recognizable effect=like control plot. The mean of the score values of in each case 4 plots was calculated.

Echinochloa crus galli [3] = assay: Herbicidal effect in rice weeds (field trial, Table 9); conditions: application in the 5-6-leaf stage, scoring 36 days after application
Procedure: as §1, §2

Cyperus iria = assay: Herbicidal effect in rice weeds (field trial, Table 6); conditions: application in the 3-leaf stage, scoring 42 days after application
Procedure: as §1, §3

Echinochloa crus-galli [4] = assay: Herbicidal effect in rice weeds (field trial, Table 11); conditions: application in the 4-leaf stage, scoring 26 days after application
Procedure: as §1, §3

Echinochloa crus-galli [5] = assay: Herbicidal effect in rice broad-leaved weeds (Table 2); conditions: application in the 3-4-leaf stage, scoring 2 weeks after application
Procedure: as §1, §3

Echinochloa crus galli [6] = assay: Herbicidal effect in rice weeds (field trial, Table 4); conditions: application in the 4-leaf stage, scoring 42 days after application
Procedure: as §1, §3

Echinochloa crus galli [7] = assay: Herbicidal effect in rice weeds (field trial, Table 7); conditions: application in the 3-leaf stage, scoring 42 days after application
Procedure: as §1, §3

Aeschynomene rudis = assay: Herbicidal effect in rice weeds (field trial, Table 8); conditions: application in the 3-leaf stage, scoring 28 days after application
Procedure: as §1, §3

**Q.** Which “Herbicidal action (%) against Cyperus difformis” value (Cyperus difformis [1]; 50 g A.S./ha) does the source give for Cc1nn(-c2cc(CC(Cl)C(=O)O)c(Cl)cc2F)c(=O)n1C(F)F (racemic) [(B2.13), (RS)-2-chloro-3-[2-chloro-5-(4-difluoromethyl-4,5-dihydro-3-methyl-5-oxo-1H-1,2,4-triazol-1-yl)-4-fluorophenyl]propionic acid] here?
**A.** 28%

**Q.** Which “Herbicidal action (%) against Cyperus difformis” value (Cyperus difformis [1]; 200 g A.S./ha) does the source give for CCS(=O)(=O)Oc1ccc2c(c1)C(C)(C)CO2 [(B2.15), 2,3-dihydro-3,3-dimethylbenzofuran-5-yl ethanesulfonate] here?
**A.** 35%

**Q.** Which “Herbicidal action (%) against Cyperus difformis” value (Cyperus difformis [2]) does the source give for CCOc1ccccc1OS(=O)(=O)NC(=O)Nc1nc(OC)cc(OC)n1 [(B2.4), 1-(4,6-dimethoxypyrimidin-2-yl)-3-(2-ethoxyphenoxysutfonyl)urea] here?
**A.** 40%

**Q.** Which “Herbicidal action (%) against Ipomoea sp.” value (Ipomoea sp.; 3360 g A.S./ha) does the source give for CCC(=O)Nc1ccc(Cl)c(Cl)c1 [(B1.4), N-(3,4-dichlorophenyl)-propanamide] here?
**A.** 90%

**Q.** CCSC(=O)N1CCCCCC1 [(B1.1), S-ethyl azepane-1-thiocarboxylate] was tested. Which “Herbicidal action (%) against Echinochloa crus galli” value (Echinochloa crus galli [3]; 4480 g A.S./ha) did it give?
**A.** 0%

**Q.** CC(C)Oc1cc(-n2nc(C(C)(C)C)oc2=O)c(Cl)cc1Cl [(B1.21)] was tested. Which “Herbicidal action (%) against Cyperus iria” value (Cyperus iria; 250 g A.S./ha) did it give?
**A.** 37%

**Q.** Which “Herbicidal action (%) against Echinochloa crus galli” value (Echinochloa crus galli [3]; 75 g A.S./ha) does the source give for CCc1cnc(C2=NC(C)(C(C)C)C(=O)N2)c(C(=O)O)c1 (centres unmarked) [(A3.2), imazethapyr] here?
**A.** 67%

**Q.** CCCC(=NOCC(C)Oc1ccc(Cl)cc1)C1=C(O)CC(C2CCCSC2)CC1=O (centres unmarked) [(B4.4)] was tested. Which “Herbicidal action (%) against Echinochloa crus-galli” value (Echinochloa crus-galli [4]; 37.5 g A.S./ha) did it give?
**A.** 50%

**Q.** And the “Herbicidal action (%) against Echinochloa crus-galli” value (Echinochloa crus-galli [4]; 75 g A.S./ha)?
**A.** 83%

**Q.** How did the “Herbicidal action (%) against Cyperus difformis” value (Cyperus difformis [1]; 15 g A.S./ha) turn out when COc1cc(OC)nc(NC(=O)NS(=O)(=O)c2c(C(=O)O)cnn2C)n1 [(B2.8), 5-(4,6-dimethoxypyrimidin-2-ylcarbamoylsulfamoyl)-1-methylpyrazole-4-carboxylic acid] was run?
**A.** 65%

**Q.** What does the source list for COC(=O)c1ccccc1CS(=O)(=O)NC(=O)Nc1nc(OC)cc(OC)n1 [(B2.3), methyl 2-[[[[[(4,6-dimethoxy-2-pyrimidinyl)amino]carbonyl]-amino]sulfonyl]methyl]benzoate]?
**A.** Herbicidal action (%) against Cyperus difformis (Cyperus difformis [1]; 35 g A.S./ha): 55%; Herbicidal action (%) against Cyperus difformis (Cyperus difformis [1]; 70 g A.S./ha): 87%; Herbicidal action (%) against Echinochloa crus-galli (Echinochloa crus-galli [5]; 45 g A.S./ha): 0%

**Q.** CC1(C)CON(Cc2ccccc2Cl)C1=O [(B1.12), 2-(2-chlorobenzyl)-4,4-dimethyl-1,2-oxazolidin-3-one] was tested. Which “Herbicidal action (%) against Echinochloa crus galli” value (Echinochloa crus galli [6]; 400 g A.S./ha) did it give?
**A.** 7%

**Q.** With O=C(O)c1c(Cl)ccc2cc(Cl)cnc12 [(B1.3), 3,7-dichloroquinoline-8-carboxylic acid] as the compound, how does the “Herbicidal action (%) against Echinochloa crus galli” value (Echinochloa crus galli [7]; 560 g A.S./ha) read?
**A.** 25%

**Q.** How did the “Herbicidal action (%) against Cyperus iria” value (Cyperus iria; 1 g A.S./ha) turn out when COc1nc(C)nc(NC(=O)NS(=O)(=O)c2ccccc2C(=O)O)n1 [(B2.5), 2-[[[[(4-methoxy-6-methyl-1,3,5-triazin-2-yl)amino]carbonyl]amino]sulfonyl]benzoic acid] was run?
**A.** 35%

**Q.** For CCC(CC)Nc1c([N+](=O)[O-])cc(C)c(C)c1[N+](=O)[O-] [(B1.5), N-(1-ethylpropyl)-2,6-dinitro-3,4-xylidine], which “Herbicidal action (%) against Cyperus iria” value (Cyperus iria; 1000 g A.S./ha) is on record?
**A.** 33%

**Q.** For O=C(O)COc1ccc(Cl)cc1Cl [(B2.1), (2,4-dichlorophenoxy)acetic acid], which “Herbicidal action (%) against Cyperus iria” value (Cyperus iria; 500 g A.S./ha) is on record?
**A.** 62%

**Q.** What does the source list for CP(=O)(O)CCC(N)C(=O)O (centres unmarked) [(A1.2), glufosinate-monoammonium salt]?
**A.** Herbicidal action (%) against Cyperus iria (Cyperus iria; 400 g A.S./ha): 35%; Herbicidal action (%) against Cyperus difformis (Cyperus difformis [1]; 400 g A.S./ha): 18%; Herbicidal action (%) against Cyperus difformis (Cyperus difformis [1]; 500 g A.S./ha): 40%; Herbicidal action (%) against Echinochloa crus galli (Echinochloa crus galli [7]; 400 g A.S./ha): 65%; Herbicidal action (%) against Echinochloa crus galli (Echinochloa crus galli [6]; 250 g A.S./ha): 63%; Herbicidal action (%) against Echinochloa crus galli (Echinochloa crus galli [6]; 500 g A.S./ha): 87%; Herbicidal action (%) against Echinochloa crus-galli (Echinochloa crus-galli [5]; 400 g A.S./ha): 93%; Herbicidal action (%) against Ipomoea sp. (Ipomoea sp.; 400 g A.S./ha): 93%; Herbicidal action (%) against Echinochloa crus galli (Echinochloa crus galli [3]; 500 g A.S./ha): 18%; Herbicidal action (%) against Aeschynomene rudis (Aeschynomene rudis; 250 g A.S./ha): 65%; Herbicidal action (%) against Aeschynomene rudis (Aeschynomene rudis; 500 g A.S./ha): 83%; Herbicidal action (%) against Echinochloa crus-galli (Echinochloa crus-galli [4]; 250 g A.S./ha): 35%; Herbicidal action (%) against Echinochloa crus-galli (Echinochloa crus-galli [4]; 500 g A.S./ha): 75%

**Q.** With CCN(CC)C(=O)SCc1ccc(Cl)cc1 [(B1.2), S-4-chlorobenzyl diethylthiocarbamate] as the compound, how does the “Herbicidal action (%) against Cyperus iria” value (Cyperus iria; 1500 g A.S./ha) read?
**A.** 57%
